Source: PMC10088252
Values joined by “and” are separate entries in the source; they are usually repeats but may differ in a detail not shown here. Equal values may be shown once. Read-outs that look alike come from different tables or passages of the source.

Columns and labels:
[1] = tested on: locally advanced or metastatic NSCLC harboring c-MET overexpression or MET exon 14 skipping mutation; format: in vivo, human
Method: Patients enrolled in this study were divided into two parts. […] Patients with pre-existing c-MET overexpression at hospital diagnosis were also included in Part A. In Part B, patients in the 400 mg bis in die (BID) dose cohort, blood and tissue samples were collected to perform NGS to determine the MET exon 14 skipping mutation. Patients harboring pre-existing MET exon 14 skipping mutation at hospital diagnosis were also enrolled into Part B. […] Statistical analyses were performed using SAS version 9.4 (SAS Institute, Cary, NC, USA). Age was expressed as median (range), and categorical variables were expressed as frequency (percentage). The 95% CIs of ORR and DCR were calculated using Clopper-Pearson method. […] No imputation method was performed for missing data.

[2] = Plasma PK from sparse data, population PK analysis without PK modeling; format: in vivo, human; conditions: 28 days
Method: A total of 21 patients in Part A were included in PKAS. […] The mean T1/2 of M1 ranged from 19.8 h to 21.8 h. For M2-2, its mean T1/2 was not able to estimate in the 450 mg QD and 600 mg QD cohorts, and 21.3 h in the 300 mg QD cohort. The MP ratio calculated based on AUCtau ranged from 6.0 to 9.1 for M1, and ranged from 4.1 to 5.7 for M2-2.

O=C(Nc1ccc(Oc2ccnc3c2CCN3)c(F)c1)c1c[nH]cc(-c2ccc(F)cc2)c1=O
BOR CR ([1]; 300 mg QD (n=12)): 0 n (%) | BOR NE (patients not evaluable) ([1]; 300 mg QD (n=12)): 0 n (%) | BOR PD ([1]; 300 mg QD (n=12)): 7 (58.3) n (%) | BOR PR ([1]; 300 mg QD (n=12)): 0 n (%) | BOR SD ([1]; 300 mg QD (n=12)): 5 (41.7) n (%) | DCR (95% CI) ([1]; 300 mg QD (n=12)): 41.7% and 41.7 (15.2, 72.3) % | ORR (95% CI) ([1]; 300 mg QD (n=12)): 0 (0, 26.5) % | PFS, median (95% CI) ([1]; 300 mg QD (n=12)): 1.9 months and 1.9 (1.9, 5.6) months | BOR CR ([1]; 400 mg BID (n=4)): 0 n (%) | BOR PD ([1]; 400 mg BID (n=4)): 0 n (%) | BOR PR ([1]; 400 mg BID (n=4)): 0 n (%) | BOR CR ([1]; 450 mg QD (n=12)): 0 n (%) | BOR PD ([1]; 450 mg QD (n=12)): 6 (50.0) n (%) | BOR PR ([1]; 450 mg QD (n=12)): 0 n (%) | BOR SD ([1]; 450 mg QD (n=12)): 4 (33.3) n (%) | DCR (95% CI) ([1]; 450 mg QD (n=12)): 33.3% and 33.3 (9.9, 65.1) % | ORR (95% CI) ([1]; 450 mg QD (n=12)): 0 (0, 26.5) % | OS, median (95% CI) ([1]; 450 mg QD (n=12)): 9.3 months and 9.3 (2.6, NE) months | PFS, median (95% CI) ([1]; 450 mg QD (n=12)): 1.9 months and 1.9 (1.1, 3.8) months | BOR CR ([1]; 600 mg QD (n=10)): 0 n (%) | BOR PD ([1]; 600 mg QD (n=10)): 2 (20.0) n (%) | BOR SD ([1]; 600 mg QD (n=10)): 3 (30.0) n (%) | DCR (95% CI) ([1]; 600 mg QD (n=10)): 40.0% and 40.0 (12.2, 73.8) % | ORR (95% CI) ([1]; 600 mg QD (n=10)): 10.0 (0.3, 44.5) % | PFS, median (95% CI) ([1]; 600 mg QD (n=10)): 1.8 months and 1.8 (1.2, 3.9) months | ORR ([1]; Part A (n=34), c-MET overexpression): 2.9% | DCR (95% CI) ([1]; Part B, 400 mg BID (n=4)): 75.0% and 75.0 (19.4, 99.4) % | ORR (95% CI) ([1]; Part B, 400 mg BID (n=4)): 0% and 0 (0, 60.2) % | PFS, median (95% CI) ([1]; Part B, 400 mg BID (n=4)): 3.4 months and 3.4 (3.2, 3.7) months | BOR CR ([1]; Total (n=38)): 0 n (%) | BOR PD ([1]; Total (n=38)): 15 (39.5) n (%) | BOR SD ([1]; Total (n=38)): 15 (39.5%) n (%) and 15 (39.5) n (%) | DCR (95% CI) ([1]; Total (n=38)): 42.1% and 42.1 (26.3, 59.2) % | ORR (95% CI) ([1]; Total (n=38)): 2.6% and 2.6 (0.1, 13.8) % | OS, median (95% CI) ([1]; Total (n=38)): 10.3 months and 10.3 (7.3, NE) months | PFS, median (95% CI) ([1]; Total (n=38)): 1.9 months and 1.9 (1.9, 3.7) months | AUCtau, mean (SD) ([2]; 300 mg QD (n=4)): 7420.0 (3120.0) h×ng/mL | CLss/F, mean (SD) ([2]; 300 mg QD (n=4)): 46.2 (18.7) L/h | Cmax,ss, mean (SD) ([2]; 300 mg QD (n=4)): 601.0 (189.0) ng/mL | Cmin,ss, mean (SD) ([2]; 300 mg QD (n=4)): 89.1 (56.3) ng/mL | Ctrough, mean (SD) ([2]; 300 mg QD (n=4)): 94.1 (79.0) ng/mL | T1/2, mean (SD) ([2]; 300 mg QD (n=4)): 9.1 (1.7) h | Tmax,ss, mean (SD) ([2]; 300 mg QD (n=4)): 4.0 (2.0) h | Vz,ss/F, mean (SD) ([2]; 300 mg QD (n=4)): 685.0 (196.0) L | AUCtau, mean (SD) ([2]; 450 mg QD (n=5)): 6350.0 (2710.0) h×ng/mL | CLss/F, mean (SD) ([2]; 450 mg QD (n=5)): 77.9 (33.2) L/h | Cmax,ss, mean (SD) ([2]; 450 mg QD (n=5)): 470.0 (83.3) ng/mL | Cmin,ss, mean (SD) ([2]; 450 mg QD (n=5)): 151.0 (77.5) ng/mL | Ctrough, mean (SD) ([2]; 450 mg QD (n=5)): 167.0 (100.5) ng/mL | T1/2, mean (SD) ([2]; 450 mg QD (n=5)): 10.3 (NE) h | Tmax,ss, mean (SD) ([2]; 450 mg QD (n=5)): 5.1 (2.0) h | Vz,ss/F, mean (SD) ([2]; 450 mg QD (n=5)): 1500.0 (NE) L | AUCtau, mean (SD) ([2]; 600 mg QD (n=2)): 6980.0 (NE) h×ng/mL | CLss/F, mean (SD) ([2]; 600 mg QD (n=2)): 86.0 (NE) L/h | Cmax,ss, mean (SD) ([2]; 600 mg QD (n=2)): 758.0 (NE) ng/mL | Cmin,ss, mean (SD) ([2]; 600 mg QD (n=2)): 80.3 (NE) ng/mL | Ctrough, mean (SD) ([2]; 600 mg QD (n=2)): 201.1 (166.4) ng/mL | T1/2, mean (SD) ([2]; 600 mg QD (n=2)): 9.6 (NE) h | Tmax,ss, mean (SD) ([2]; 600 mg QD (n=2)): 3.0 (NE) h | Vz,ss/F, mean (SD) ([2]; 600 mg QD (n=2)): 1180.0 (NE) L
